In patent US10658848B2, “Materials for use with aqueous redox flow batteries and related methods and systems” (Massachusetts Institute of Technology, priority 2014, dated 2020):

Assays:
[1] = Quantitative CV and rotating disk voltammetry with numerical fitting (Randles-Sevcik, Levich); assay type: physicochemical; conditions: for DO, diffusion coefficient for quinoxaline / DR, diffusion coefficient for the reduced species / α, transfer coefficient for the reduction (forward) reaction: 295 K; for number of electrons transferred, n: ± 95% confidence interval
From the text: A set of quantitative experiments were designed to calculate the number of electrons transferred, diffusion coefficients, and transfer coefficients using the Randles-Sevcik equation for irreversible CVs (Eq. (E1)) and the Levich equation (Eq. (E2)). In Eq. (E1), ip is the peak current, n is the number of electrons transferred, α is the transfer coefficient, A is the electrode surface area, F is Faraday's constant, C is the reactant concentration, s is the scan rate, R is the universal gas constant, T is temperature, and D is the diffusion coefficient (e.g., see Compton et al. Understanding Voltammetry, 2nd ed., Imperial College Press, London, 2011). Additionally, in Eq. (E2), iL is the RDV limiting current, ω is the electrode rotation rate, and v is the kinematic viscosity (e.g., see Bard et al. Electrochemical Methods: Fundamentals and Applications, John Wiley & Sons, Danvers, 2001). Kinematic viscosities were determined from dynamic viscosities, which were interpolated from tables by Zaytsev and […] et al. Properties of Aqueous Solutions of Electrolytes, 1st ed., CRC Press, Boca Raton, 1992), and electrolyte densities, which were measured using a balance and known solution volume. All remaining variables are constants or were determined by the experimental design. Quantitative CV and RDV experiments were carried out in a water-jacketed three-electrode cell. Chilled water at a temperature of 295 K (22° C.) was continuously passed through the water jacket in order to maintain a constant temperature throughout the experiment. A rotating disk electrode with a 0.5 cm diameter glassy carbon electrode (0.196 cm^2) was used as a working electrode. A coiled Pt wire used as a counter electrode was housed in a glass compartment that was separated from the main chamber by a porous frit. Both chambers were filled with the same bulk electrolyte. The reference electrode was a double junction Ag/AgCl (10% KNO3), which had been calibrated against a commercially available reversible hydrogen electrode (BAS Inc.) in 1 M NaHCO3 solution by measuring OCV between the two electrodes. All cell components were purchased from Pine Instruments Co., including the rotator and motor used in RDV experiments. Cells were filled with 80 mL of solution, and the solution was bubbled with argon using a porous glass frit at a rate of 50 mL/min for 1 h before taking any electrochemical measurements. After 1 h, the argon gas bubbling stream was switched to an argon gas blanket above the solution. Three cycles of CV, with a stationary electrode, were recorded at each of the following scan rates: 5, 10, 20, 50, and 100 mV/s. Between CV and RDV experiments, the glassy carbon electrode was re-polished before beginning RDV experiments. […] Quantitative voltammetry experiments were performed in triplicate using freshly prepared solution and freshly polished glassy carbon electrodes for each trial. CV experiments were performed at five different scan rates, and RDV experiments were performed at five different rotation speeds for each electrolyte of interest. The aim of these experiments was to determine the number of electrons transferred during a quinoxaline redox reaction, the diffusion coefficients of quinoxaline and its reduced species in each electrolyte, and the transfer coefficients of the redox reactions. FIG. 5a-e and FIG. 6a-e display the third cycle of typical CV data at different scan rates and the second cathodic scan of typical RDV data at different rotation rates, respectively. In order to quantitatively determine the number of electrons transferred, a numerical fitting technique was employed. Among the irreversible Randles-Sevcik (Eq. (E1)) and Levich (Eq. (E2)) equations, there are four unknown variables: the number of electrons transferred, n, two diffusion coefficients, DO/DR, and the transfer coefficient, α. […]

[2] = Repeated CV cycling of 5 mM quinoxaline in 1 M potassium chloride; assay type: physicochemical
Protocol: Electrochemical experiments were carried out using other electrolytes.

[3] = 0.45M K2SO4/0.1M KOH, pH 12.9, n=2 fixed
[4] = 0.495M K2SO4/0.01M KOH, pH 11.8, n=2 fixed
[5] = 0.9M KCl/0.1M KOH, pH 12.9, n=2 fixed
[6] = 0.99M KCl/0.01M KOH, pH 11.8, n=2 fixed

Compound: c1ccc2nccnc2c1 [quinoxaline]
- DO, diffusion coefficient for quinoxaline [1, 3]: 7.3 ± 1.7 10^−6 cm^2/s
- DR, diffusion coefficient for the reduced species [1, 3]: 4.4 ± 0.4 10^−6 cm^2/s
- α, transfer coefficient for the reduction (forward) reaction [1, 3]: 0.60 ± 0.00
- number of electrons transferred, n ([1]; 0.45M K2SO4/0.1M KOH, pH 12.9): 2.54 ± 0.43
- DO, diffusion coefficient for quinoxaline [1, 4]: 6.4 ± 0.7 10^−6 cm^2/s
- DR, diffusion coefficient for the reduced species [1, 4]: 4.8 ± 1.0 10^−6 cm^2/s
- α, transfer coefficient for the reduction (forward) reaction [1, 4]: 0.59 ± 0.00
- number of electrons transferred, n ([1]; 0.495M K2SO4/0.01M KOH, pH 11.8): 2.26 ± 0.33
- DO, diffusion coefficient for quinoxaline [1, 5]: 6.7 ± 0.4 10^−6 cm^2/s
- DR, diffusion coefficient for the reduced species [1, 5]: 5.9 ± 1.0 10^−6 cm^2/s
- α, transfer coefficient for the reduction (forward) reaction [1, 5]: 0.62 ± 0.02
- number of electrons transferred, n ([1]; 0.9M KCl/0.1M KOH, pH 12.9): 2.90 ± 0.03
- DO, diffusion coefficient for quinoxaline [1, 6]: 6.0 ± 0.6 10^−6 cm^2/s
- DR, diffusion coefficient for the reduced species [1, 6]: 4.9 ± 2.2 10^−6 cm^2/s
- α, transfer coefficient for the reduction (forward) reaction [1, 6]: 0.59 ± 0.04
- number of electrons transferred, n ([1]; 0.99M KCl/0.01M KOH, pH 11.8): 1.89 ± 0.21
- DO, diffusion coefficient for quinoxaline ([1]; 1M KOH, pH 13.7, n=2 fixed): 5.8 ± 0.9 10^−6 cm^2/s
- DR, diffusion coefficient for the reduced species ([1]; 1M KOH, pH 13.7, n=2 fixed): 4.0 ± 1.7 10^−6 cm^2/s
- α, transfer coefficient for the reduction (forward) reaction ([1]; 1M KOH, pH 13.7, n=2 fixed): 0.60 ± 0.05
- number of electrons transferred, n ([1]; 1M KOH, pH 13.7): 2.34 ± 0.72
- diffusion coefficient of quinoxaline relative to the reduced species ([1]; in each electrolyte of Table E3): 1.1-1.7 ×
- mean calculated value for n (navg) ([1]; mean over the electrolytes in Table E2): 2.34
- transfer coefficient α for the forward reaction ([1]; overall, n=2 fixed): ≈ 0.6
- number of electrons transferred, n, rounded to nearest integer ([1]; rounded from navg): 2
- theoretical capacity ([1]; two-electron transfer process): 410 mAh/g
- peak currents on repeated cycling ([2]; 5 mM quinoxaline in 1 M potassium chloride with 10 mM potassium hydroxide): no decrease in peak currents was observed after 100 or 200 cycles
- cathodic and anodic currents on repeated cycling ([2]; 5 mM quinoxaline in 1 M potassium chloride, no added base, glassy carbon electrode): decreased with repeated cycling
